What was measured:
[1] = test system: MMP-9; assay: Western blot analysis in HepG2 cells; type: cell-based, human; settings: HepG2, 48 h
Experimental: (§1) The mitogen-activated protein kinase (MAPK) pathway is considered to be a key player in the gene expression of survival, proliferative, and anti-apoptotic proteins. Aberrant dysregulation in the MAPK pathway activity has been linked to the overall poor prognosis in various cancers. […] Additionally, compound 12b was further tested against p38, MKK3, and JNK using ELISA assay protocols at a concentration of 11 µM. […] The overexpression of JNK might have contributed to the NO released from 12b and reactive oxygen species (ROS). In summary, the novel anticancer lead compound 12b is worthy of further investigation and activity improvement.
(§2) The cells were seeded (2.5 × 10^5 cells/mL) and treated as described above. After 48 h of incubation with compound 12b, cells were lysed by RIPA buffer containing 1x protease and phosphatase inhibitor cocktail (Thermo Scientific™, Waltham, MA, USA). The supernatant was collected after centrifugation at 4 °C and the Pierce BCA Protein Assay Kit (Thermo Scientific™, 23225, Waltham, MA, USA) was used for protein concentration detection. Proteins were then separated using SDS-PAGE at 100 V for 45 min. After that, the proteins were transferred to a nitrocellulose membrane. The membrane was subjected to a suitable primary antibody overnight. Then, an appropriate HRP-conjugated secondary antibody was used. GAPDH was used as a loading control. The membrane was developed using WesternBright® ECL (Advansta Inc., K-12045-D20, San Jose, CA, USA), and the signal was detected using ChemiDoc XRS^+ (1708265, Bio-Rad Laboratories, Hercules, CA, USA).

[2] = test system: p21; assay: Western blot analysis in HepG2 cells; type: cell-based, human; settings: HepG2, 48 h
Experimental: as §1, §2

[3] = test system: p53; assay: Western blot analysis in HepG2 cells; type: cell-based, human; settings: HepG2, 48 h
Experimental: as §1, §2

[4] = test system: total ERK; assay: Western blot analysis in HepG2 cells; type: cell-based, human; settings: HepG2, 48 h
Experimental: as §1, §2

[5] = test system: p27; assay: Western blot analysis in HepG2 cells; type: cell-based, human; settings: HepG2, 48 h
Experimental: as §1, §2

[6] = test system: pERK; assay: Western blot analysis in HepG2 cells; type: cell-based, human; settings: HepG2, 48 h
Experimental: as §1, §2

[7] = test system: HepG2 cells; assay: Intracellular measurement of NO by DAF-FM diacetate flow cytometry; type: cell-based, human; settings: HepG2, 11 µM, 1 h, DAF-FM DA; DMSO 0.1%
Experimental: The NO-releasing properties of 12b were evaluated by measuring the level of intracellular NO by flow cytometry, using a cell-permeable and photo-stable NO fluorescent indicator, 3-Amino-4-aminomethyl-2’,7’-difluorofluorescein diacetate (DAF-FM DA), with a detection limit of ~3 nM. DAF-FM diacetate penetrates the cells and is deacetylated by esterase enzyme to yield a non-fluorescent dye, DAF-FM, which, upon reaction with NO, produces a fluorescent benzotriazole product. Compound 12b was efficiently able to increase the production of NO in the treated cells (9.9% vs. 0.1% in DMSO-treated cells; Figure 9). Furthermore, compound 12b increased NO production as efficiently as the positive control reference drug JS-k.
HepG2 cells were collected, and the number was adjusted at 10^6 cells/test, and then they were stained with 5 µM DAF-FM™ diacetate (Invitrogen, Cat. No. D-23844) for 60 min at 37 °C and 5% CO2. After that, the stained cells were washed to remove the excess probe, and then were re-incubated for another 30 min. Following that, the stained cells were treated either with 12b (5.5 or 11 µM) or JS-K as a positive nitric oxide donor or DMSO as a negative control for another 1 h. The fluorescence was detected by flow cytometry using the FITC detection system in a BD flow Cytometer.

[8] = test system: Bax; assay: Quantitative RT-PCR for gene expression in HepG2 cells; type: cell-based, human; settings: HepG2, 12 h
Text: (§3) Epithelial cells express specific genes involved in maintaining apical–basal polarity and adherence, such as epithelial E-cadherin. The epithelial cells migrate to distant locations by over-expressing mesenchymal genes, including neuronal N-cadherin and vimentin [58]. Cancer aggressiveness has been positively correlated with the over-expression of N-cadherin. Therefore, in this study, the partial mechanism of activity of 12b was investigated, by quantitative RT-PCR, with respect to E-cadherin and N-cadherin. […] Additionally, the ability of 12b was confirmed by detecting the change in expression of both pro-apoptotic (Bax) and anti-apoptotic (BCL-2) genes. Compound 12b-treated HepG2 cells (for 12 h) expressed a low level of BCL-2 and over-expressed Bax (Figure 11A).
(§4) HepG2 cells were treated either with DMSO, 5.5 or 11 µM of 12b for 12 h, and then the total RNA was extracted by TRIzol™ Reagent (Invitrogen, Cat. No. 15596018). The RNA concentration and purity were evaluated using a Thermo Scientific™ NanoDrop™ One Microvolume UV-Vis Spectrophotometer. Four µg RNA was reverse transcribed to cDNA using the RevertAid First Strand cDNA Synthesis kit. The level of N-cadherin, E-cadherin, BCL-2, Bax, and GAPDH was detected using the SensiFAST™ SYBR® High-ROX Kit with the StepOne™ Real-Time PCR System (Applied Biosystems™). The expression level was firstly normalized to the level of GAPDH, then calculated as 2^−(ΔΔCt), where ΔCt 12b = (Ct […] Ct GAPDH); ΔCt DMSO = (Ct DMSO ™ Ct GAPDH); ΔΔCt = (ΔCt 12b ™ ΔCt DMSO). Ct is the cycle threshold.

[9] = test system: E-cadherin; assay: as above; type: cell-based, human; settings: HepG2, 5.5 or 11 µM, 12 h
Text: as §3, §4

[10] = test system: BCL-2; assay: as above; type: cell-based, human; settings: HepG2, 12 h
Text: as §3, §4

[11] = test system: N-cadherin; assay: as above; type: cell-based, human; settings: HepG2, 5.5 or 11 µM, 12 h
Text: as §3, §4

[12] = test system: A2780; assay: MTT cell viability assay; type: cell-based; settings: Homo sapiens, Ovarian, 48 h, ± SD of triplicates
Experimental: (§5) In addition, the morphological changes in 12b-treated cancer cell lines at concentrations of 6.25 and 12.50 µM are shown in Figure 6.
(§6) According to the procedures of Skehan et al. (with minor modifications), the cancer or normal cells were seeded in a 96-well plate (100 µL/well). After overnight incubation at 37 °C and 5% CO2, the cells were incubated with 50 µM of each tested compound or DMSO (0.5% v/v). After 48 h of incubation, MTT (3-(4,5-dimethylthiazoyl)-2,5-diphenyl-tetrazolium bromide) 5 mg/mL Phosphate-Buffered Saline (PBS) was added, and the plate was incubated for 4 h. After that, acidified sodium dodecyl sulfate (SDS) solution (10% SDS containing 0.01N HCl in 1× PBS) was used to solubilize formazan crystals. The absorbance was measured after 14 h of incubation at λ570–630 nm by a Biotek plate reader (Gen5™).

[13] = test system: A2780CP; assay: MTT cell viability assay; type: cell-based; settings: Homo sapiens, A2780C/P, Ovarian, 48 h, ± SD of triplicates
Experimental: as §5, §6

[O-][n+]1onc(-c2ccccc2)c1CNc1ccc(Nc2nc(C(F)(F)F)nc3c2cnn3-c2ccc(Br)cc2)cc1 [12b, 3-(((4-((1-(4-bromophenyl)-6-(trifluoromethyl)-1H-pyrazolo[3,4-d]pyrimidin-4-yl)amino)phenyl)amino)methyl)-4-phenyl-1,2,5-oxadiazole 2-oxide]
expression of metalloproteinase MMP-9 [1]: downregulation | expression of p21 [2]: over-expression | expression of p53 [3]: slight increase in the expression | level of total ERK [4]: decreased the level | expression of p27 [5]: over-expression | level of phosphorylated ERK [6]: decreased the level | intracellular NO production (P2) [7]: 9.9% | expression of Bax [8]: over-expressed | expression of epithelial E-cadherin [9]: increased expression | expression of BCL-2 [10]: low level | expression of neuronal N-cadherin [11]: lower expression | IC50 [12]: 15 ± 0.15 µM | IC50 [13]: 11.6 ± 0.1 µM
